Experiments:
MM1.S cells = assay: RNA-seq gene expression profiling; assay type: cell-based, human; conditions: 3 μM, 6 h
Protocol: FIGS. 7A-7H provide graphs showing CCF642-34 is selective for PDIA1 inhibition-induced ER stress response pathway. MM1.S cells were treated with 3 μM of either CCF642 or CCF642-34 for 6 h, and gene expression analysis was performed by RNA sequencing. (A,B) Volcano plots showing CCF642-34 and CCF642 compared to DMSO control. The criteria for differential expression were at least a 2-fold change with p value less than 0.05. The analysis was performed in Originlab, Version 2019b (OriginLab Corporation, Northampton, MA, USA). […] The diagram was generated using a web-based bioinformatics server. (D,E) Hierarchical clusterings with heat map of MM1.S cells treated with vehicle CCF642-34 or CCF642 are shown for response to endoplasmic reticulum stress and unfolded protein response gene sets. (F-H) Heat maps of PERK and ATF6 target genes, Nrf2, and ER-associated degradation (ERAD) pathways are compared between control and inhibitor-treated MM1.S cells. Data analysis was performed using a web-based server and the Broad Institute Morpheus software.
RNA-seq and analysis: MM1.S cells were treated with 3 μM of either CCF642 or CCF642-34 for 6 h, and RNA was purified by using the NucleoSpin RNA kit (Takara Bio USA, Inc.; cat. #740955) according to the manufacturer's instruction. The RNA sequencings were completed as reported previously. Guan et al., Commun. Biol., 3, 1-13 (2020) The RNA-seq data were sub-mitted to the Gene Expression Omnibus (GEO) repository at the National Center for Biotechnology Information (NCBI) archives, with assigned GEO accession number GSE167097.

5TGM1-luc myeloma cells = assay: 5TGM1-luc/C57BL/KaLwRij syngeneic mouse model of myeloma; assay type: in vivo
Protocol: FIGS. 8A & 8B provide graphs showing the stability of CCF642-34 and restriction of multiple myeloma in a syngeneic mouse model by PDIA1-inhibitor CCF642-34. (A) The stability of CCF642-34 was measured against oxidative metabolism by human liver microsomes. CCF642-34 (20 μM) was incubated with 0.25 mg/mL of human liver microsomes for 5 h. The residual compound at indicated time points was measured by HPLC (Agilent 1260 Infinity II) interfaced with reverse phase C18 column using 280 nm and 245 nm detection wavelength. The standard curve of known concentrations of CCF642-34 was obtained from the area under the peak at two wavelengths, and the remaining CCF642-34 was estimated. Data are representative of two independent experiments. (B) 5TGM1-luc/C57BL/KaLwRij mouse models of myeloma (3 males, 3 females per treatment group) were engrafted with 2×10^6 5TGM1-luc cells via tail vein injection and treated 3 times a week for 8 weeks per oral gavage with 20 mg/kg of CCF642-34 dissolved in 10% 2-hydroxy-propyl-o-cyclodextrin. The survival of each group was monitored, and Kaplan-Meier survival analysis was performed. All control animals required euthanasia before 52 days (due to paraparesis, weight loss, poor general condition), while 3 out of 6 mice treated with CCF642-34 lived beyond 6 months with no sign of disease.
Mouse experiment: Animal care and procedures were conducted in accordance with institutional guidelines approved by the Institutional Animal Care and Use Committee (IACUC). […]
To evaluate whether CCF642-34 achieved anti-myeloma efficacy after oral administration in vivo we used the 5TGM1-luc/C57BL/KaLwRij syngeneic mouse model. […] Mouse weight was monitored along with systemic symptoms of distress or disease. […] The intensity of luminescence was not good enough for the detection of bioluminescence, which is a common issue in the imaging of B57 black 6 mice. Therefore, the inventors primarily monitored the survival, and the disease burden was determined in the bone marrow cells at the time of sacrifice of a moribund mice. […]

[1] = 20 mg/kg oral gavage 3 times a week for 8 weeks

NC(CC1CNc2ccccc21)C(=O)NCCCOc1ccc(N2C(=O)/C(=C/c3ccc([N+](=O)[O-])s3)SC2=S)cc1 (stereo not shown) [CCF642-34]
TRIB3 upregulation compared to controls (MM1.S cells): ~20 fold | number of downregulated genes (MM1.S cells): 156 genes | number of upregulated genes (MM1.S cells): 206 genes | number of genes with changed expression compared to vehicle control (MM1.S cells; 2-fold change, p less than 0.05): 362 genes | mice living beyond 6 months with no sign of disease (5TGM1-luc myeloma cells; [1]): 3 out of 6 | mice living beyond 180 days with no sign of disease (5TGM1-luc myeloma cells; [1]): 3 out of 6 | adverse events as assessed by weight and animal behavior (5TGM1-luc myeloma cells; oral treatment, 8 weeks): no obvious adverse events
